Measurements: US20080069814A1, “Prevention of Thrombotic Disorders with Active Vitamin D Compounds or Mimics Thereof” (Novacea, Inc., priority 2005, published 2008)

Legend:
[1] = test system: patients with prostate cancer; assay: Phase II clinical trial: Taxotere with or without calcitriol by HDPA, cardiovascular events; assay type: in vivo, human; conditions: 125 patients per arm; calcitriol three 15 μg capsules once a week on the day prior to Taxotere 75 mg/m^2
From the text: Two hundred fifty patients with prostate cancer were enrolled at 58 centers in the United States and Canada. All patients in the study received chemotherapy treatment with Taxotere®, a drug in the taxoid class of chemotherapeutic agents. […] Oral dexamethasone is also given along with the Taxotere® to minimize certain side effects (allergic reactions and fluid retention) associated with Taxotere®.
In addition to Taxotere® and dexamethasone, half of the patients were randomly treated with calcitriol and the other half received a placebo. Calcitriol was administered as three capsules of 15 μg each once a week on the day prior to chemotherapy. […] The same Taxotere® doses of 75 mg/m^2 body surface area were administered to the patients receiving Taxotere® alone or Taxotere® in combination with calcitriol.

TF = conditions: in vitro, cultured monocytic cells including human peripheral monocytes; cited from earlier work
thrombomodulin (“TM”) = conditions: in vitro, cultured monocytic cells including human peripheral monocytes; cited from earlier work
[2] = test system: women with metastatic breast cancer; conditions: cited from earlier work
[3] = test system: patients suffering from non-small-cell carcinoma of the lung; conditions: in vivo, sc; cited from earlier work
[4] = test system: venous thromboembolism (VTE); conditions: in vivo; cited from earlier work
[5] = test system: patients receiving heparin; conditions: cited from earlier work

CC(=O)O[C@@]12CO[C@@H]1C[C@H](O)[C@@]1(C)C(=O)[C@H](O)C3=C(C)[C@@H](OC(=O)[C@H](O)[C@@H](NC(=O)OC(C)(C)C)c4ccccc4)C[C@@](O)([C@@H](OC(=O)c4ccccc4)[C@H]21)C3(C)C [Taxotere®]
Patients who developed deep vein thrombosis or thrombophlebits [1]: six of 125 | Patients who developed myocardial infractions or myocardial ischemia [1]: two of 125 | Patients who had a stroke (cerebrovascular events) [1]: two of 125

C=C1/C(=C\C=C2/CCC[C@]3(C)[C@@H]([C@H](C)CCCC(C)(C)O)CC[C@@H]23)C[C@@H](O)C[C@@H]1O [calcitriol, 1α,25-dihydroxyvitamin D3]
Expression of TF (TF): down-regulating the expression | Expression of the anticoagulant thrombomodulin (thrombomodulin (“TM”)): up-regulating the expression

epoetin alfa: erythropoiesis-stimulating agent, FDA-approved drug EPOGEN
Kaplan-Meier estimated 12-month survival rate ([2]; in vivo): 70% | Mortality at 4 months ([2]; weekly epoetin alfa for up to a year, interim results): 8.7% | Rate of fatal thrombotic events ([2]; weekly epoetin alfa, interim results): 1.1% | Median survival versus placebo [3]: significant difference in the median survival in favor of patients on the placebo arm

erythropoietin: erythropoiesis-stimulating agent
Association with VTE [4]: significantly associated with VTE

heparin
Patients with immunologic reaction resulting in heparin-induced thrombocytopenia (HIT), average [5]: 5%
